Measured values as given in patent US12077555B2, “STAT degraders and uses thereof” (Kymera Therapeutics, Inc., priority 2019, dated 2024).

Each compound was assayed against STAT3 (Homo sapiens, UniProt P40763) (assay: Quantitation of STAT3 degradation in A549 cells by Western blot). Conditions: 24 hours, tested up to 30 μM or 10 μM, read-out: A549 DC50.
Sequence of STAT3 (P40763 whole entry): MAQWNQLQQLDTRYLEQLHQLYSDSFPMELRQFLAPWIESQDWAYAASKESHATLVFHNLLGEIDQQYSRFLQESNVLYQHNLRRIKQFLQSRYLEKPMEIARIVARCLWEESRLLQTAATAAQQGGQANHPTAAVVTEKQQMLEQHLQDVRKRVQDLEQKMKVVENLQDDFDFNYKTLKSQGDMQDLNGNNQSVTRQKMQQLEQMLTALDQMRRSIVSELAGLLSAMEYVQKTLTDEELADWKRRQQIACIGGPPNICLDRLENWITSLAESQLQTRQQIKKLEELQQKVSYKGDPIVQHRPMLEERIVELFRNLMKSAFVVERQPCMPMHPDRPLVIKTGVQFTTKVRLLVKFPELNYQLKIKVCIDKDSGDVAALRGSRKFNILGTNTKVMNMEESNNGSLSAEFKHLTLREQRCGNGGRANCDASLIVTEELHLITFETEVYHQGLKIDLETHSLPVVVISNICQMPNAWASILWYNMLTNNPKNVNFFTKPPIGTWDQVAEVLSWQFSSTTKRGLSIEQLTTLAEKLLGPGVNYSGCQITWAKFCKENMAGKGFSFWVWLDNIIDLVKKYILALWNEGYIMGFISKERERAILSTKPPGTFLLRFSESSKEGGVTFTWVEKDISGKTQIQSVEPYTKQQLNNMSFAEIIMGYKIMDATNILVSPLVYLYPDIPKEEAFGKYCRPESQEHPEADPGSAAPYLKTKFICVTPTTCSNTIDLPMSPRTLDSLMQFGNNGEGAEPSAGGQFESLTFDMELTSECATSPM
Assay type: cell-based
Design: expressed in transfected cells; host or cells: A549
Procedure: Degradation of total cellular STAT3 protein in A549 was quantitatively measured using SDS-PAGE and Western blot analysis. A549 cells (5×10^5 cells/well, 2 mL) were seeded into 6-well plates and were incubated in the incubator under 5% CO2 overnight to reach ˜80% confluency. The next day, the culture medium was changed with 1 ml fresh media. Then, 1 mL of media containing 2× compound solution was added into the well to make the final concentration of 30 μM, 10 μM, 3 μM, 1 μM, 0.3 μM and 0 μM (DMSO). The media was thoroughly mixed and incubated for 24 hours at 37° C. under 5% CO2. Then, the culture media was removed from the assay plates and the cells were washed with ice-cold PBS twice. To prepare cell lysates, 200 ul pre-chilled RIPA lysis buffer (Boston BioProducts BP-115D) with protease/phosphatase inhibitor (Roche 05892791001/Roche 04906837001) was added directly into the well to lyse the cells for 20 minutes on ice. The cell lysates were then transferred to centrifuge tubes. Insoluble part of lysates was removed by centrifuging the lysates at 13000 rpm for 20 minutes. The supernatant was then collected and mixed with 5× loading buffer (Beyotime Bio P0015) to make the final samples for SDS-PAGE analysis. The samples were heated at 100° C. for 10 minutes and cool to room temperature before centrifuging at 13000 rpm for 20 minutes. To analyze the samples by SDS-PAGE, 10 ul samples were loaded onto SDS-PAGE gel (Novex, WG1403BOX) and the SDS-PAGE gel was run for 20 minutes at 80 V, then at 120 V for 1.5 hours. The SDS-PAGE gel was then transferred to nitrocellulose membrane using the wet-transfer method at 250 mA for 1.5 hours. The membrane was then blocked with LI-COR blocking buffer (LI-COR, 927-50000) for 1 hour and was probed with primary antibody (mouse anti-STAT3 (124H6) (CST #91395) 1:2000 or mouse anti-beta-Actin (8H10D10) (CST #3700) 1:10000) at 4° C. overnight. The membrane was then washed three times with TBST buffer and probed with secondary antibody (anti-mouse IgG (LI-COR, 926-68070), 1:5000) for 1 hour at room temperature. The membrane was then scanned on a LI-COR Odyssey instrument and was quantified using Image Studio Version 5.2. Concentration at 50% degradation (DC50) was calculated by fitting dose dependent degradation data using a sigmoidal equation using GraphPad Prism Version 8.0.
`C/C(=C\C(=O)N[C@H]1CCc2cccc3c2N(C1=O)[C@H](C(=O)N[C@@H](CCC(N)=O)[C@@H](C)OCc1ccc(CCOCC(=O)N[C@H](C(=O)N2C[C@H](O)C[C@H]2C(=O)NCc2ccc(-c4scnc4C)cc2)C(C)(C)C)cc1)C3)c1ccc(C(F)(F)P(=O)(OCOC(=O)C(C)(C)C)OCOC(=O)C(C)(C)C)cc1` [Compound I-13] was tested, and the DC50 was < 30 µM.
In the case of `C/C(=C\C(=O)N[C@H]1CCc2cccc3c2N(C1=O)[C@H](C(=O)N[C@@H](CCC(N)=O)[C@@H](C)OCc1ccc(CCCOCCOCCOCCOCCOc2cc(-c4scnc4C)ccc2CNC(=O)[C@@H]2C[C@@H](O)CN2C(=O)[C@@H](NC(=O)C2(F)CC2)C(C)(C)C)cc1)C3)c1ccc(C(F)(F)P(=O)(OCOC(=O)C(C)(C)C)OCOC(=O)C(C)(C)C)cc1` [Compound I-16], the DC50 is reported as > 30 µM.

Same assay, conditions: read-out: A549 DC50, 24 hours, tested up to 30 μM or 10 μM
In the case of `C/C(=C\C(=O)N[C@H]1CCc2cccc3c2N(C1=O)[C@H](C(=O)N[C@@H](CCC(N)=O)[C@@H](C)OCc1ccc(CCOCCCc2cccc4c2n(C)c(=O)n4C2CCC(=O)NC2=O)cc1)C3)c1ccc(C(F)(F)P(=O)(OCOC(=O)C(C)(C)C)OCOC(=O)C(C)(C)C)cc1` (stereo partly drawn) [Compound I-9, [([4-[(1E)-1-[[(2S,11S)-2-[[(3S,4R)-1-carbamoyl-4-[[4-(2-[3-[1-(2,6-dioxopiperidin-3-yl)-3-methyl-2-oxo-1,3-benzodiazol-4-yl]propoxy]ethyl)phenyl]methoxy]pentan-3-yl]carbamoyl]-12-oxo-1-azatricyclo[6.4.1.0^[4,13]]trideca-4(13),5,7-trien-11-yl]carbamoyl]prop-1-en-2-yl]phenyl]difluoromethyl([(2,2-dimethylpropanoyl)oxy]methoxy)phosphoryl)oxy]methyl 2,2-dimethylpropanoate], the DC50 is reported as > 30 µM.
With `C/C(=C\C(=O)N[C@H]1CCc2cccc3c2N(C1=O)[C@H](C(=O)N[C@@H](CCC(N)=O)[C@@H](C)OCc1ccc(CCCOCCCc2cccc4c2n(C)c(=O)n4C2CCC(=O)NC2=O)cc1)C3)c1ccc(C(F)(F)P(=O)(OCOC(=O)C(C)(C)C)OCOC(=O)C(C)(C)C)cc1` (stereo partly drawn) [Compound I-10, [([4-[(1E)-1-[[(2S,11S)-2-[[(3S,4R)-1-carbamoyl-4-[[4-(3-[3-[1-(2,6-dioxopiperidin-3-yl)-3-methyl-2-oxo-1,3-benzodiazol-4-yl]propoxy]propyl)phenyl]methoxy]pentan-3-yl]carbamoyl]-12-oxo-1-azatricyclo[6.4.1.0^[4,13]]trideca-4(13),5,7-trien-11-yl]carbamoyl]prop-1-en-2-yl]phenyl]difluoromethyl([(2,2-dimethylpropanoyl)oxy]methoxy)phosphoryl)oxy]methyl 2,2-dimethylpropanoate] the DC50 was > 30 µM.
For `C/C(=C\C(=O)N[C@H]1CCc2cccc3c2N(C1=O)[C@H](C(=O)N[C@@H](CCC(N)=O)[C@@H](C)OCc1ccc(C(=O)N[C@H](C(=O)N2C[C@H](O)CC2C(=O)NCc2ccc(-c4scnc4C)cc2)C(C)(C)C)cc1)C3)c1ccc(C(F)(F)P(=O)(OCOC(=O)C(C)(C)C)OCOC(=O)C(C)(C)C)cc1` (stereo partly drawn) [Compound I-11], the DC50 was > 30 µM.
`C/C(=C\C(=O)N[C@H]1CCc2cccc3c2N(C1=O)[C@H](C(=O)N[C@@H](CCC(N)=O)[C@@H](C)OCc1ccc(CCC(=O)N[C@H](C(=O)N2C[C@H](O)CC2C(=O)NCc2ccc(-c4scnc4C)cc2)C(C)(C)C)cc1)C3)c1ccc(C(F)(F)P(=O)(OCOC(=O)C(C)(C)C)OCOC(=O)C(C)(C)C)cc1` (stereo partly drawn) [Compound I-12] was tested, and the DC50 was > 30 µM.
With `C/C(=C\C(=O)N[C@H]1CCc2cccc3c2N(C1=O)[C@H](C(=O)N[C@@H](CCC(N)=O)[C@@H](C)OCc1ccc(CCCOCCOCCOCCOc2cc(-c4scnc4C)ccc2CNC(=O)[C@@H]2C[C@@H](O)CN2C(=O)[C@@H](NC(=O)C2(F)CC2)C(C)(C)C)cc1)C3)c1ccc(C(F)(F)P(=O)(OCOC(=O)C(C)(C)C)OCOC(=O)C(C)(C)C)cc1` [Compound I-17] the DC50 was > 30 µM.
In the case of `C/C(=C\C(=O)N[C@H]1CCc2cccc3c2N(C1=O)[C@H](C(=O)N[C@@H](CCC(N)=O)[C@@H](C)OCc1ccc(CCCCOCC(=O)N[C@H](C(=O)N2C[C@@H](O)C[C@H]2C(=O)NCc2ccc(-c4scnc4C)cc2)C(C)(C)C)cc1)C3)c1ccc(C(F)(F)P(=O)(OCOC(=O)C(C)(C)C)OCOC(=O)C(C)(C)C)cc1` [Compound I-21], the DC50 is reported as > 30 µM.
With `C/C(=C\C(=O)N[C@H]1CCc2cccc3c2N(C1=O)[C@H](C(=O)N[C@@H](CCC(N)=O)[C@@H](C)OCc1ccc(CCCCOc2cc(-c4scnc4C)ccc2CNC(=O)[C@@H]2C[C@@H](O)CN2C(=O)[C@@H](NC(=O)C2(F)CC2)C(C)(C)C)cc1)C3)c1ccc(C(F)(F)P(=O)(OCOC(=O)C(C)(C)C)OCOC(=O)C(C)(C)C)cc1` [Compound I-26] the DC50 was > 10 µM.
`C/C(=C\C(=O)N[C@H]1CCc2cccc3c2N(C1=O)[C@H](C(=O)N[C@@H](CCC(N)=O)[C@@H](C)OCc1ccc(CCOCCOCCOCCOCC(=O)N[C@H](C(=O)N2C[C@H](O)C[C@H]2C(=O)NCc2ccc(-c4scnc4C)cc2)C(C)(C)C)cc1)C3)c1ccc(C(F)(F)P(=O)(OCOC(=O)C(C)(C)C)OCOC(=O)C(C)(C)C)cc1` [Compound I-27] was tested, and the DC50 was > 10 µM.
With `C/C(=C\C(=O)N[C@H]1CCc2cccc3c2N(C1=O)[C@H](C(=O)N[C@@H](CCC(N)=O)[C@@H](C)OCc1ccc(CCCCCCC(=O)N[C@H](C(=O)N2C[C@H](O)C[C@H]2C(=O)NCc2ccc(-c4scnc4C)cc2)C(C)(C)C)cc1)C3)c1ccc(C(F)(F)P(=O)(OCOC(=O)C(C)(C)C)OCOC(=O)C(C)(C)C)cc1` [Compound I-28] the DC50 was < 30 µM.
For `C/C(=C\C(=O)N[C@H]1CCc2cccc3c2N(C1=O)[C@H](C(=O)N[C@@H](CCC(N)=O)[C@@H](C)OCc1ccc(CCCOCCCCCc2cccc4c2n(C)c(=O)n4C2CCC(=O)NC2=O)cc1)C3)c1ccc(C(F)(F)P(=O)(OCOC(=O)C(C)(C)C)OCOC(=O)C(C)(C)C)cc1` (stereo partly drawn) [Compound I-29], the DC50 was > 10 µM.
`C/C(=C\C(=O)N[C@H]1CCc2cccc3c2N(C1=O)[C@H](C(=O)N[C@@H](CCC(N)=O)[C@@H](C)OCc1ccc(CCOCCOCCOCC(=O)N[C@H](C(=O)N2C[C@H](O)C[C@H]2C(=O)NCc2ccc(-c4scnc4C)cc2)C(C)(C)C)cc1)C3)c1ccc(C(F)(F)P(=O)(OCOC(=O)C(C)(C)C)OCOC(=O)C(C)(C)C)cc1` [Compound I-30] was tested, and the DC50 was > 10 µM.
In the case of `C/C(=C\C(=O)N[C@H]1CCc2cccc3c2N(C1=O)[C@H](C(=O)N[C@@H](CCC(N)=O)[C@@H](C)OCc1ccc(CCOCCOCC(=O)N[C@H](C(=O)N2C[C@H](O)C[C@H]2C(=O)NCc2ccc(-c4scnc4C)cc2)C(C)(C)C)cc1)C3)c1ccc(C(F)(F)P(=O)(OCOC(=O)C(C)(C)C)OCOC(=O)C(C)(C)C)cc1` [Compound I-31], the DC50 is reported as > 30 µM.
In the case of `C/C(=C\C(=O)N[C@H]1CCc2cccc3c2N(C1=O)[C@H](C(=O)NC(CCC(N)=O)[C@@H](C)OCc1ccc(CCCOCCOCCOCCOCC(=O)N[C@H](C(=O)N2C[C@H](O)C[C@H]2C(=O)NCc2ccc(-c4scnc4C)cc2)C(C)(C)C)cc1)C3)c1ccc(C(F)(F)P(=O)(OCOC(=O)C(C)(C)C)OCOC(=O)C(C)(C)C)cc1` (stereo partly drawn) [Compound I-32], the DC50 is reported as > 10 µM.
For `C/C(=C\C(=O)N[C@H]1CCc2cccc3c2N(C1=O)[C@H](C(=O)NC(CCC(N)=O)[C@@H](C)OCc1ccc(CCCOCCOCCOCC(=O)N[C@H](C(=O)N2C[C@H](O)C[C@H]2C(=O)NCc2ccc(-c4scnc4C)cc2)C(C)(C)C)cc1)C3)c1ccc(C(F)(F)P(=O)(OCOC(=O)C(C)(C)C)OCOC(=O)C(C)(C)C)cc1` (stereo partly drawn) [Compound I-33], the DC50 was > 10 µM.
For `C/C(=C\C(=O)N[C@H]1CCc2cccc3c2N(C1=O)[C@H](C(=O)NC(CCC(N)=O)[C@@H](C)OCc1ccc(CCCCOCC(=O)N[C@H](C(=O)N2C[C@H](O)C[C@H]2C(=O)NCc2ccc(-c4scnc4C)cc2)C(C)(C)C)cc1)C3)c1ccc(C(F)(F)P(=O)(OCOC(=O)C(C)(C)C)OCOC(=O)C(C)(C)C)cc1` (stereo partly drawn) [Compound I-34], the DC50 was < 30 µM.
For `C/C(=C\C(=O)N[C@H]1CCc2cccc3c2N(C1=O)[C@H](C(=O)NC(CCC(N)=O)[C@@H](C)OCc1ccc(CCCOCC(=O)N[C@H](C(=O)N2C[C@H](O)CC2C(=O)NCc2ccc(-c4scnc4C)cc2)C(C)(C)C)cc1)C3)c1ccc(C(F)(F)P(=O)(OCOC(=O)C(C)(C)C)OCOC(=O)C(C)(C)C)cc1` (stereo partly drawn) [Compound I-35], the DC50 was < 30 µM.
